As to `Cc1c(Cl)ccc(OC2CCN(C3CCN(S(=O)(=O)NC(=O)c4ccccc4)CC3)CC2)c1Cl` [Example 5A, N-Benzoyl-4-(2,4-dichloro-3-methylphenoxy)-[1,4′-bipiperidine)-1′-sulfonamide], the melting point was found to be 223 °C.
Regarding `O=C(NS(=O)(=O)N1CCC(N2CCC(Oc3ccc(Cl)c(Cl)c3)CC2)CC1)c1ccc(Cl)c(Cl)c1` [Example 8A, N-(3,4-Dichlorobenzoyl)-4-(3,4-dichlorophenoxy)-(1,4′-bipiperidine]-1′-sulfonamide], the melting point is 166 to 167 °C.
`O=C(NC(=O)N1CCC(N2CCC(Oc3ccc(Cl)c(Cl)c3)CC2)CC1)c1ccccc1` [Example 7A, N-Benzoyl-4-(3,4-dichlorophenoxy)-[1,4′-bipiperidine]-1′-carboxamide] displayed a melting point of 65 to 80 °C.
The compound `O=C(NS(=O)(=O)N1CCC(N2CCC(Oc3ccc(Cl)c(Cl)c3)CC2)CC1)c1c[nH]c(=O)c2ccccc12` [Example 11A, 4-(3,4-Dichlorophenoxy)-N-[(1,2-dihydro-1-oxo-4-isoquinolinyl)carbonyl]-[1,4′-bipiperidine]-1′-sulfonamide] had a melting point of 200 °C.
Then `Cc1ccc(S(=O)(=O)NS(=O)(=O)N2CCC(N3CCC(Oc4ccc(Cl)c(Cl)c4)CC3)CC2)cc1.[Na]`, with 242 to 243 °C.

(Values after patent publication US7307090B2, “Piperidine derivatives useful as modulators of chemokine receptor activity” (AstraZeneca AB, priority 2001, dated 2007).)
